Test results reported in ChEMBL document CHEMBL3046225, “Effects of Enantiomerism on Fungicidal and Insecticidal Activities of (-Methoxybenzyl)isoxazoles” (J Pestic Sci, 2000).
≈ marks a conversion by molar mass, not a printed value.

How the values were obtained:
Myzus persicae = assay: Insecticidal activity against Myzus persicae (green peach aphid) assessed as mortality; type: functional
Podosphaera fuliginea = assay: Fungicidal activity against Podosphaera fuliginea; type: functional, organism-based
[1] = system: Pseudoperonospora cubensis; assay: Fungicidal activity against Pseudoperonospora cubensis; type: functional, organism-based

Which LC50 (Myzus persicae) does the source give for `CO[C@H](c1cc(C)no1)c1ccccc1/C=N/N=C(\C)c1ccc(Cl)c(Cl)c1` here?
The LC50 was over 250 µg/mL.

And the EC50 (Podosphaera fuliginea)?
The EC50 was 8.8 ppm.

And the EC50 [1]?
Its EC50 is over 500 ppm.

Which results are given for `CO[C@@H](c1cc(C)no1)c1ccccc1/C=N/N=C(\C)c1ccc(Cl)c(Cl)c1`?
LC50 (Myzus persicae): 20 µg/mL (≈ 48 µM); EC50 (Podosphaera fuliginea): 0.7 ppm; EC50 [1]: 16 ppm

Which results are given for `COC(c1cc(C)no1)c1ccccc1/C=N/N=C(\C)c1ccc(Cl)c(Cl)c1` (racemic)?
LC50 (Myzus persicae): 53 µg/mL (≈ 127 µM); EC50 (Podosphaera fuliginea): 2 ppm; EC50 [1]: 32 ppm
